Measured values taken from patent EP1282604B1, “SUBSTITUTED CAPROLACTAM CARBONATES AND ETHERS AND THEIR USE AS ANTI-TUMOR AGENTS” (Novartis AG, priority 2000, dated 2001).
Read-outs that look alike come from different tables or passages of the source.

What was measured:
HCT-116 colon carcinoma = assay: Anchorage Dependent Growth Monolayer Assay (ADGMA), MTS readout; type: cell-based; details: 3-day exposure, HCT-116 cells, read-out: IC50 values (average ± S.D.) HCT-116
Text: (§1) As indicated above, all of the compounds of formula I, and their corresponding pharmaceutically acceptable acid addition salts, are anti-tumor agents and are, therefore, useful in inhibiting the growth of various lymphomas, sarcomas, carcinomas, myelomas, and leukemia cell lines. […] This assay was adapted from the 60 cell line assay used by the National Cancer Institute (NCl) with the following modifications: 1) cell lines representative for the important tumor types, viz., MDA-MB-435 human breast, A549 non-small cell lung, H1299 lung, HCT-116 colon and PC-3 prostate carcinomas, and U2OS osteosarcomas were utilized; and 2) a tetrazolium derivative, viz., 3-(4,5-dimethylthiazol-2-yl)-5-(3-carboxymethoxyphenyl)-2-(4-sulfophenyl)-2H-tetrazolium, inner salt (MTS), was utilized to determine cell density.
(§2) The ADGMA compares the number of viable cells following a 3-day exposure to a test compound relative to a number of cells present at the time the test compound was added. […] The absorbance at 490 nm (A490) of the formazan derivative is proportional to the number of viable cells. The IC50 for a test compound is the concentration of compound required to reduce the final cell number to 50% of the final control cell number. If cell proliferation is inhibited, the assay further defines compounds as cytostatic (cell number after 3-day compound incubation >cell number at time of compound addition) or cytotoxic (cell number after 3-day compound incubation <cell number at time of compound addition).
(§3) The H1299 lung, HCT-116 colon, and PC-3 prostate carcinoma cell lines, and U2OS osteosarcoma cell line were obtained from the American Type Culture Collection (ATCC) and used between passages 4-20 following thawing. H1299 and HCT-116 cells were maintained in RPMI 1640 containing 10% FBS, 100 units/mL penicillin and 100 µg/mL streptomycin; PC-3 cells were maintained in Kahn's Modification containing 10% FBS, 100 units/mL penicillin and 100 µg/mL streptomycin; and U2OS cells were maintained in DMEM containing 10% FBS, 100 units/mL penicillin and 100 µg/mL streptomycin.
(§4) Cell lines are trypsinized and counted using a Coulter counter to determine plating densities. Cells are then plated in their respective maintenance media (100 µL/well) in 96 well plates at the following densities: MDA-MB-435 and U2OS, 3,000 cells/well; A549 and HCT-116, 700 cells/well; H1299, 1,000 cells/well; and PC-3, 2500 cells/well. The number of cells plates as determined in preliminary experiments, results in cell densities of 75-90% of confluency by 4 days after plating. Initial cell densities, assayed one day after plating, are roughly 0.15-0.20 absorbance units greater than the media blank. Ninety-six well plates are seeded on day 0 and the test compounds are added on day 1. A control plate is created for each cell line that receives media only in row A and cells in row B. One day following plating, test compounds are added (in a final volume of 100 µL) to the test plates. Control plates receive 10 µL MTS mixture (prepared fresh on day of addition to cell plates at a ratio of 10 µL of a 0.92 mg/mL solution of PMS to a 190 µL of a 2 mg/mL solution of MTS) and 100 µL media. A490 of control plates is read 4 h after MTS addition to determine initial cell density values for each cell line. Three days after addition of test compound, 10 µL/well of MTS mixture is added to the test plates and A490 is read 4 h later. A490 values for wells containing cells are corrected for media absorbance, then normalized to initial density readings to determine percent net growth. IC50 values are determined from graphs of percent net growth as a function of compound concentration. Percent net growth is calculated as (Cell + Drug A490 - Initial A490/Cell + Drug Vehicle A490 - Initial A490) x 100%.

H1299 lung carcinoma = assay: as above; type: cell-based; details: 3-day exposure, H1299 cells, read-out: IC50 values (average ± S.D.) H1299
Text: as §1, §2, §3, §4

U2OS osteosarcoma = assay: as above; type: cell-based; details: 3-day exposure, U2OS cells, read-out: IC50 values (average ± S.D.) U2OS
Text: as §1, §2, §3, §4

[1] = test system: A549 non-small cell lung carcinoma; assay: as above; type: cell-based, human; details: 3-day exposure, A549 cells, read-out: IC50 values (average ± S.D.) A549
Text: as §1, §2
(§5) The MDA-MB-435 human breast carcinoma and the A549 non-small cell lung carcinoma lines were obtained from the American Type Culture Collection (ATCC) and used between passages 4-20 following thawing. MDA-MB-435 human breast carcinoma and A549 non-small cell lung carcinoma cells were maintained and plated in DME/F12 medium containing 10% fetal bovine serum, 15 mM HEPES (pH=7.4), 100 units/mL penicillin, and 100 µg/mL streptomycin.
as §4

[2] = test system: MDA-MB-435 human breast carcinoma; assay: as above; type: cell-based; details: 3-day exposure, MDA-MB-435 cells, read-out: IC50 values (average ± S.D.) MDA-MB-435
Text: as §1, §2, §5, §4

A549 tumor xenografts = assay: Human tumor xenograft growth inhibition in athymic nude mice; type: in vivo; details: 5X/week for 2 weeks; for Δ MTV / %T/C: recorded on day 24; for %T/C: * = p<0.05
Description: (§6) Utilizing this model, one can measure the ability of test compounds to inhibit the growth of human tumor xenografts growing subcutaneously (s.c.) in athymic nude mice. The histologic tumor type employed was MDA-MB-435 breast carcinoma for Ex.1 and 7 and A549 non-small cell lung carcinoma for Ex. 1-3.
A549 non-small cell lung carcinoma: Treatments were started 17 d post-implantation (1 x 10^7 cells/mouse), when a mean tumor volume of approximately 120 mm^3 was reached. Ex. 1-3 were administered iv on days 17-21 (followed by 2 d rest, then a second cycle of treatment on days 24-28). Total daily doses of 10 or 30 µmol/kg were administered as a single injection. Data in this table were recorded on day 24, 3 d after the last treatment of the first cycle. An asterisk (*) indicates p < 0.05 using a one-tailed Student's t-Test.
(§7) Toxicity was monitored by recording average group body weights twice weekly, and by daily observation of general health. Efficacy was monitored by taking measurements of tumor length, width, and depth weekly using digital calipers coupled to automated data collectors. Mean tumor volume (MTV) at initiation of therapy was subtracted from final MTV in order to express the actual tumor growth during treatment (A MTV). Anti-tumor activity was expressed as %T/C (A MTV of treated group ÷ Δ MTV of control group X100%). Statistical significance was evaluated using a one-tailed Student's t-test (p<0.05).

[3] = test system: MDA-MB-435 tumor xenografts; assay: as above; type: in vivo; details: 3X/week for 3 weeks; for %T/C: * = p<0.05
Description: as §6
MDA-MB-435 human breast carcinoma: Treatments were started 15 d post implantation (3 x 10^6 cells/mouse), when a mean tumor volume of approximately 45 mm^3 was reached. Ex.1 and 7 were administered iv at three times per week for 3 weeks (days 15, 17, 20, 22, 24, 27, 29, and 31), at 3.3, 10, and 33 µmol/kg. Doxorubicin was administered iv at 2 mg/kg using the same schedule. Each data point represents tumor growth (mean ± SEM), or body weight (mean), with an initial group size of n = 8, from a representative experiment performed twice. An asterisk (*) indicates p < 0.05 using a one-tailed Student's t-test.
as §7

Compound	IC50 (HCT-116 colon carcinoma; Homo sapiens, 72 h) [nM]	IC50 (H1299 lung carcinoma; Homo sapiens, NCI-H1299, 72 h) [nM]	IC50 (U2OS osteosarcoma; Homo sapiens, 72 h) [nM]	IC50 ([1]; Homo sapiens, 72 h) [nM]	IC50 ([2]; Homo sapiens, 72 h) [nM]	Dead/Total (A549 tumor xenografts; 10 µmol/kg iv daily)	Δ MTV (A549 tumor xenografts; 10 µmol/kg iv daily) [mm^3]	%T/C (A549 tumor xenografts; 10 µmol/kg iv daily)	Dead/Total (A549 tumor xenografts; 30 µmol/kg iv daily)	Δ MTV (A549 tumor xenografts; 30 µmol/kg iv daily) [mm^3]	%T/C (A549 tumor xenografts; 30 µmol/kg iv daily)	Dead/Total ([3]; 3.3 µmol/kg iv)	Δ MTV ([3]; 3.3 µmol/kg iv) [mm^3]	%T/C ([3]; 3.3 µmol/kg iv)	Dead/Total ([3]; 10 µmol/kg iv)	Δ MTV ([3]; 10 µmol/kg iv) [mm^3]	%T/C ([3]; 10 µmol/kg iv) [%]	Dead/Total ([3]; 33 µmol/kg iv)	Δ MTV ([3]; 33 µmol/kg iv) [mm^3]	%T/C ([3]; 33 µmol/kg iv)	further results
CO[C@@H](C(=O)N[C@H]1CC[C@@H](OC(=O)OC2CCCCC2)CNC1=O)[C@H](O)[C@@H](O)[C@H](O)/C=C/C(C)(C)C [Ex. 6, (2R, 3R, 4S, 5R, 6E)-3,4,5-trihydroxy-2-methoxy-8,8-dimethyl-N-[(3S, 6R)-hexahydro-2-oxo-6-([[cyclohexyloxy]carbonyl]oxy)-2H-azepin-3-yl]non-6-enonamide]	400 ± 120	570 ± 290	770 ± 400	441 ± 63	350 ± 110																
CCCCCOC(=O)O[C@@H]1CC[C@H](NC(=O)[C@H](OC)[C@H](O)[C@@H](O)[C@H](O)/C=C/C(C)(C)C)C(=O)NC1 [Ex. 2, (2R, 3R, 4S, 5R, 6E)-3,4,5-trihydroxy-2-methoxy-8,8-dimethyl-N-[(3S, 6R)-hexahydro-2-oxo-6-([[pentyloxy]carbonyl]oxy)-2H-azepin-3-yl]non-6-enonamide]						0/8	42	32* %	0/8	60	46* %										IC50 (HCT-116 colon carcinoma): 170 ± 100 nM; IC50 (H1299 lung carcinoma): 210 ± 170 nM; IC50 (U2OS osteosarcoma): 90 ± 30 nM; IC50 [1]: 117 ± 20 nM; IC50 [2]: 70 ± 20 nM
CO[C@@H](C(=O)N[C@H]1CC[C@@H](OC(=O)OCCc2ccccc2)CNC1=O)[C@H](O)[C@@H](O)[C@H](O)/C=C/C(C)(C)C [Ex. 3, (2R, 3R, 4S, 5R, 6E)-3,4,5-trihydroxy-2-methoxy-8,8-dimethyl-N-[(3S, 6R)-hexahydro-2-oxo-6-([[2-phenylethoxy]carbonyl]oxy)-2H-azepin-3-yl]non-6-enonamide]	160 ± 30	330 ± 270	310 ± 40	132 ± 20	80 ± 30	0/8	106	82%	0/8	55	42* %										
CCCCCCCCCCOC(=O)O[C@@H]1CC[C@H](NC(=O)[C@H](OC)[C@H](O)[C@@H](O)[C@H](O)/C=C/C(C)(C)C)C(=O)NC1 [Ex. 1, (2R, 3R, 4S, 5R, 6E)-3,4,5-trihydroxy-2-methoxy-8,8-dimethyl-N-[(3S, 6R)-hexahydro-2-oxo-6-([[decyloxy]carbonyl]oxy)-2H-azepin-3-yl]non-6-enonamide]	530 ± 350	570 ± 220	> 1000		210 ± 140	0/8	95	73%	0/8	39	30* %	0/8	132	74* %	0/8	162	90	0/8	79	44* %	
CO[C@@H](C(=O)N[C@H]1CC[C@@H](OC(=O)OCC(C)(C)C)CNC1=O)[C@H](O)[C@@H](O)[C@H](O)/C=C/C(C)(C)C [Ex. 5, (2R, 3R, 4S, 5R, 6E)-3,4,5-trihydroxy-2-methoxy-8,8-dimethyl-N-[(3S, 6R)-hexahydro-2-oxo-6-([[2,2-dimethylpropoxy]carbonyl]oxy)-2H-azepin-3-yl]non-6-enonamide]	270 ± 100	360 ± 120	620 ± 160	138 ± 8	120 ± 20																
CCCCCCCCCCCOCC(=O)O[C@@H]1CC[C@H](NC(=O)[C@H](OC)[C@H](O)[C@@H](O)[C@H](O)/C=C/C(C)(C)C)C(=O)NC1 [Ex. 7, (2R, 3R, 4S, 5R, 6E)-3,4,5-trihydroxy-2-methoxy-8,8-dimethyl-N-[(3S, 6R)-hexahydro-2-oxo-6-([[undecyloxy]acetyl]oxy)-2H-azepin-3-yl]non-6-enonamide]												0/8	165	102%	0/8	103	64	0/8	48	30* %	
